Test results from patent publication US7442703B2, “Piperidine derivatives useful as CCR5 antagonists” (priority 2001, dated 2008).
Counter-ions that a name gives are not always drawn. Like-named read-outs stand apart in the source and are kept apart here.

How the values were obtained:
[1] = system: HIV-1 luciferase reporter virus in U87-CD4-CCR5 cells; test: HIV Replication (luciferase) assay; assay type: cell-based
Description: Luciferase Replication Assay:
Plasmids encoding the full length genome of HIV-1 pNL-4-Luc with the gp120 V-3 loop replaced by the Bgl II fragment of HIV-1 ADA, YU-2 or HxB (ADA-Luc-FL, YU-2-Luc-FL and HxB-Luc-FL) are obtained from Dr. Susan Pontow (Washington University, St. Louis Mo.). Replication-competent luciferase reporter virus stocks are generated by transfection of plasmids into 293T cells using Superfect (Qiagen) or Mirus transfection reagents. Viral stocks are collected 48 hours following transfection and titered for luciferase production on U-87-CCR5 or CXCR4 cells. U87-CD4-CCR5 cells (10^4/well) are plated in 96-well cell culture plates and incubated overnight. Media is removed and replaced with 50 μl of fresh culture media (DMEM, 10% FCS) and 50 μl of compound diluted in culture medium. Cells are incubated with compound at 37° C. for 1 hour. The resultant supernatant is removed and replaced with 20 μl of media containing compound and infected with an equal volume of diluted or undiluted virus stock at 37° C. for 3-4 hours. The cells are washed once with DMEM, and 200 μl of media containing compound is added. The cultures are incubated for 3 days, the cells lysed in luciferase lysis buffer (Promega, Madison, Wis.) and transferred to Immulon plates (Dynex Technologies, Chantilly Va.). An equal volume of luciferase substrate (Promega, Madison Wis.) is added to lysates and the plates read immediately in a Wallac Luminometer. Fifty and ninety percent inhibitory concentrations are determined using GraphPad PRISM software.

[2] = Human immunodeficiency virus 1, U87/CD4/CCR5, read-out: HIV Replication (luciferase) IC50
[3] = Human immunodeficiency virus 1, U87/CD4/CCR5

In the case of `CCCN(c1cccc2cccnc12)C1CCN(C2(C)CCN(C(=O)c3c(C)ncnc3C)CC2)CC1` (as salt: HCl) [Compound 110], the melting point is reported as 181 °C (dec.).
Molecule `Cc1ncnc(C)c1C(=O)N1CCC(C)(N2CCC(N(Cc3ccccc3)c3ccncc3)CC2)CC1` (as salt: HCl) [Compound 108] has a melting point of 182 to 189 °C.
Molecule `Cc1ncnc(C)c1C(=O)N1CCC(C)(N2CCC(N(Cc3ccccc3)C3CCCN(S(=O)(=O)C4CC4)C3)CC2)CC1` (stereo not drawn) (as salt: HCl) [Compound 112] has a melting point of 190 to 195 °C.
With `Cc1ncnc(C)c1C(=O)N1CCC(C)(N2CCC(N(Cc3ccccc3)c3ccc(Cl)c(C(F)(F)F)c3)CC2)CC1` [Compound 35] the IC50 [1, 2] was 2 nM.
With `CCc1ccc(N(Cc2ccccc2)C2CCN(C3(C)CCN(C(=O)c4c(C)ncnc4C)CC3)CC2)cc1` [Compound 41] the IC50 [1, 2] was under 0.1 nM.
For `Cc1ncnc(C)c1C(=O)N1CCC(C)(N2CCC(N(Cc3ccccc3)c3ccc(C(F)(F)F)cc3)CC2)CC1` [Compound 10], the IC50 [1, 2] was 0.5 nM.
Molecule `Cc1cc(-c2cc[n+]([O-])cc2)cc(C)c1C(=O)N1CCC(C)(N2CCC(N(c3ccccc3)c3ccc(C(F)(F)F)cn3)CC2)CC1` [Compound 83] has an IC50 [1, 2] of 0.05 nM.
Molecule `Cc1ncnc(C)c1C(=O)N1CCC(C)(N2CCC(N(c3ccccc3)c3ccc(Oc4ccccc4)cc3)CC2)CC1` [Compound 105] has an IC50 [1, 2] of 5 nM.
Work on `Cc1ncnc(C)c1C(=O)N1CCC(C)(N2CCC(N(Cc3ccccc3)c3ccc(Br)cc3)CC2)CC1` (as salt: HCl) yielded a melting point of 168 to 170 °C.
With `Cc1ncnc(C)c1C(=O)N1CCC(C)(N2CCC(N(c3ccccc3)c3ccc(C(F)(F)F)nc3)CC2)CC1` (as salt: HCl) [Compound 69] the melting point was 189 to 193 °C.
`COc1cccc(N(Cc2ccccc2)C2CCN(C3(C)CCN(C(=O)c4c(C)ncnc4C)CC3)CC2)c1` [Compound 33] showed an IC50 [1, 2] of 0.53 nM.
In the case of `Cc1ncnc(C)c1C(=O)N1CCC(C)(N2CCC(N(Cc3ccccc3)C3CCN(S(=O)(=O)C4CC4)CC3)CC2)CC1` [Compound 7], the IC50 [1, 2] is reported as 3 nM.
Molecule `Cc1ncnc(C)c1C(=O)N1CCC(C)(N2CCC(N(Cc3ccccc3)C3CCCN(S(=O)(=O)C4CC4)C3)CC2)CC1` (stereo not drawn) [Compound 112] has an IC50 [1, 3] of 30 nM.
In the case of `Cc1ncnc(C)c1C(=O)N1CCC(C)(N2CCC(N(Cc3ccccc3)c3ccc(C(F)(F)F)nc3)CC2)CC1` [Compound 13], the IC50 [1, 2] is reported as 0.2 nM.
In the case of `Cc1ncnc(C)c1C(=O)N1CCC(C)(N2CCC(N(c3ccccc3)c3cc(Cl)cc(Cl)c3)CC2)CC1` [Compound 92], the IC50 [1, 2] is reported as 4.1 nM.
For `Cc1ncnc(C)c1C(=O)N1CCC(C)(N2CCC(N(Cc3ccccc3)c3ccc(F)c(Cl)c3)CC2)CC1` [Compound 27], the IC50 [1, 2] was 0.1 nM.
For `Cc1ncnc(C)c1C(=O)N1CCC(C)(N2CCC(N(Cc3ccccc3)C3CCN(S(=O)(=O)c4ccc(Cl)cc4)CC3)CC2)CC1` [Compound 6], the IC50 [1, 2] was 0.9 nM.
Work on `Cc1ncnc(C)c1C(=O)N1CCC(C)(N2CCC(N(CC3CC3)C3CCN(S(=O)(=O)c4cccc(Cl)c4)CC3)CC2)CC1` [Compound 3] yielded an IC50 [1, 2] of 32 nM.
In the case of `Cc1ncnc(C)c1C(=O)N1CCC(C)(N2CCC(N(Cc3ccccc3)c3cc(C(F)(F)F)cc(C(F)(F)F)c3)CC2)CC1` [Compound 34], the IC50 [1, 2] is reported as 10 nM.
Work on `Cc1ncnc(C)c1C(=O)N1CCC(C)(N2CCC(N(Cc3ccccc3)c3ccc(F)cc3)CC2)CC1` [Compound 14] yielded an IC50 [1, 2] of 0.1 nM.
With `Cc1ncnc(C)c1C(=O)N1CCC(C)(N2CCC(N(Cc3cccnc3)c3ccccc3)CC2)CC1` [Compound 80] the IC50 [1, 2] was 2 nM.
Work on `COc1ccc(N(c2ccccc2)C2CCN(C3(C)CCN(C(=O)c4c(C)ncnc4C)CC3)CC2)cc1Cl` [Compound 91] yielded an IC50 [1, 2] of 0.12 nM.
Work on `Cc1ncnc(C)c1C(=O)N1CCC(C)(N2CCC(N(Cc3ccccc3)c3ccc(CCNS(=O)(=O)C4CC4)cc3)CC2)CC1` [Compound 56] yielded an IC50 [1, 2] of 0.2 nM.
In the case of `Cc1ncnc(C)c1C(=O)N1CCC(C)(N2CCC(N(Cc3ccccc3)c3ccc(Cl)cc3)CC2)CC1` [Compound 12], the IC50 [1, 2] is reported as 0.2 nM.
Work on `Cc1ncnc(C)c1C(=O)N1CCC(C)(N2CCC(N(CC3CCCCC3)c3ccc(Br)cc3)CC2)CC1` [Compound 98] yielded an IC50 [1, 2] of 2 nM.
`Cc1cc(-c2cc[n+]([O-])cc2)cc(C)c1C(=O)N1CCC(C)(N2CCC(N(c3ccccc3)c3ccc(OC(F)(F)F)cc3)CC2)CC1` [Compound 81] gave an IC50 [1, 2] of 3 nM.
Work on `CCOc1ccc(N(Cc2ccccc2)C2CCN(C3(C)CCN(C(=O)c4c(C)ncnc4C)CC3)CC2)cc1` [Compound 40] yielded an IC50 [1, 2] of under 0.1 nM.
Molecule `Cc1ncnc(C)c1C(=O)N1CCC(C)(N2CCC(N(Cc3ccccc3)c3ccc(C(C)C)cc3)CC2)CC1` [Compound 22] has an IC50 [1, 2] of 0.2 nM.
Molecule `Cc1ncnc(C)c1C(=O)N1CCC(C)(N2CCC(N(Cc3ccccc3)c3cccc(C(=O)NCc4ccccc4)c3)CC2)CC1` [Compound 66] has an IC50 [1, 2] of 1 nM.
For `Cc1ncnc(C)c1C(=O)N1CCC(C)(N2CCC(N(c3ccccc3)c3ccc(C(F)(F)F)nc3)CC2)CC1` [Compound 69], the IC50 [1, 3] was 0.11 nM.
With `Cc1cc(N(Cc2ccccc2)C2CCN(C3(C)CCN(C(=O)c4c(C)ncnc4C)CC3)CC2)ccc1Br` [Compound 28] the IC50 [1, 2] was 0.22 nM.
With `Cc1ncnc(C)c1C(=O)N1CCC(C)(N2CCC(N(c3ccccc3)c3cccc(Br)c3)CC2)CC1` [Compound 87] the IC50 [1, 2] was 0.1 nM.
`Cc1ncnc(C)c1C(=O)N1CCC(C)(N2CCC(N(Cc3ccccc3)c3ccn(Cc4ccccc4)n3)CC2)CC1` [Compound 46] gave an IC50 [1, 2] of 2 nM.
`Cc1ncnc(C)c1C(=O)N1CCC(C)(N2CCC(N(Cc3ccccc3)c3ccc(Br)c(C(F)(F)F)c3)CC2)CC1` [Compound 38] gave an IC50 [1, 2] of 3 nM.
For `COc1cccc(N(c2ccccc2)C2CCN(C3(C)CCN(C(=O)c4c(C)ncnc4C)CC3)CC2)c1` [Compound 94], the IC50 [1, 2] was 1 nM.
With `Cc1ncnc(C)c1C(=O)N1CCC(C)(N2CCC(N(Cc3ccccn3)c3ccc(Br)cc3)CC2)CC1` [Compound 89] the IC50 [1, 2] was 0.8 nM.
With `Cc1ncnc(C)c1C(=O)N1CCC(C)(N2CCC(N(Cc3ccccc3)c3ccc(CCNS(=O)(=O)CC(F)(F)F)cc3)CC2)CC1` [Compound 57] the IC50 [1, 2] was 0.4 nM.
`Cc1ncnc(C)c1C(=O)N1CCC(C)(N2CCC(N(Cc3ccccc3)c3cccc(F)c3)CC2)CC1` [Compound 31] showed an IC50 [1, 2] of 0.44 nM.
With `Cc1ncnc(C)c1C(=O)N1CCC(C)(N2CCC(N(Cc3cccnc3)c3ccc(Br)cc3)CC2)CC1` [Compound 97] the IC50 [1, 2] was 0.3 nM.
For `COc1ccc(N(Cc2ccccc2)C2CCN(C3(C)CCN(C(=O)c4c(C)ncnc4C)CC3)CC2)cc1` [Compound 37], the IC50 [1, 2] was 0.1 nM.
For `COCCN(c1ccc(Br)cc1)C1CCN(C2(C)CCN(C(=O)c3c(C)ncnc3C)CC2)CC1` [Compound 103], the IC50 [1, 2] was 2 nM.
`Cc1ncnc(C)c1C(=O)N1CCC(C)(N2CCC(N(Cc3ccccc3)c3cccc(C(=O)NC4CC4)c3)CC2)CC1` [Compound 68] showed an IC50 [1, 2] of 2 nM.
Work on `CC(=O)NCCc1ccc(N(Cc2ccccc2)C2CCN(C3(C)CCN(C(=O)c4c(C)ncnc4C)CC3)CC2)cc1` [Compound 49] yielded an IC50 [1, 2] of 0.4 nM.
`Cc1ncnc(C)c1C(=O)N1CCC(C)(N2CCC(N(Cc3ccccc3)C3CCN(S(=O)(=O)c4cccc(Cl)c4)CC3)CC2)CC1` [Compound 1] showed an IC50 [1, 2] of 0.1 nM.
With `Cc1ncnc(C)c1C(=O)N1CCC(C)(N2CCC(N(Cc3ccccc3)C3CCN(S(C)(=O)=O)CC3)CC2)CC1` [Compound 2] the IC50 [1, 2] was 0.8 nM.
In the case of `Cc1ncnc(C)c1C(=O)N1CCC(C)(N2CCC(N(C)c3ccc(Cl)c4cccnc34)CC2)CC1` (as salt: HCl), the melting point is reported as 164 to 167 °C (dec.).
Molecule `Cc1ncnc(C)c1C(=O)N1CCC(C)(N2CCC(N(CC3CC3)c3ccccc3)CC2)CC1` [Compound 74] has an IC50 [1, 2] of 10 nM.
`Cc1ncnc(C)c1C(=O)N1CCC(C)(N2CCC(N(Cc3ccccc3)c3ccc(Cl)c4cccnc34)CC2)CC1` [Compound 51] showed an IC50 [1, 2] of 0.32 nM.
